Article PMC8584349 (International Journal of Molecular Sciences, 2021)

Columns and labels:
Conditions in all cases: 12 h
[1] = system: SARS-CoV-2 B.1.1.7 (Alpha) PsV
[2] = system: SARS-CoV-2 B.1.617.2 (Delta) PsV
[3] = system: SARS-CoV-2 B.1.351 (Beta) PsV
[4] = system: SARS-CoV-2 P.1 (Gamma) PsV

## CC[C@H](C)[C@H](NC(=O)[C@H](C)NC(=O)[C@H](CCC(=O)O)NC(=O)[C@H](CCC(=O)O)NC(=O)[C@H](CC(C)C)NC(=O)[C@H](CCCCN)NC(=O)[C@H](CCCCN)NC(=O)[C@H](CCSC)NC(=O)[C@H](CCC(=O)O)NC(=O)[C@H](Cc1ccc(O)cc1)NC(=O)[C@H](CCC(=O)O)NC(=O)[C@H](CC(C)C)NC(=O)[C@H](CC(=O)O)NC(=O)[C@H](CC(C)C)NC(=O)[C@H](Cc1ccccc1)NC(=O)[C@@H](NC(=O)[C@@H](NC(=O)[C@H](CC(N)=O)NC(=O)[C@@H](NC(=O)[C@H](CCC(N)=O)NC(=O)[C@H](CC(=O)O)NC(=O)[C@H](CC(C)C)NC(=O)[C@@H](N)CO)[C@@H](C)CC)C(C)C)[C@@H](C)O)C(=O)N[C@@H](CCCCN)C(=O)N[C@@H](CCCCN)C(=O)N[C@@H](CC(C)C)C(=O)N[C@@H](CCC(=O)O)C(=O)N[C@@H](CCC(=O)O)C(=O)N[C@@H](CO)C(=O)N[C@@H](Cc1ccc(O)cc1)C(=O)N[C@H](C(=O)N[C@@H](CC(=O)O)C(=O)N[C@@H](CC(C)C)C(=O)N[C@@H](CCCCN)C(=O)N[C@@H](CCC(=O)O)C(=O)N[C@@H](CC(C)C)C(=O)O)[C@@H](C)CC [EK1]
[1]
  IC50: 4.61 µM
[2]
  IC50: 0.48 µM
[3]
  IC50: 2.29 µM
[4]
  IC50: 1.32 µM
